{"source": "patent EP4595972A1", "about": "“PEPTIDE FOR TREATING OR PREVENTING 4R TAUOPATHY” (GemVax & KAEL Co., Ltd., priority 2022, dated 2024)", "key": {"tau oligomer (Tau-BiFC)": {"biological_target": "T1, tau oligomer (Tau-BiFC) (Homo sapiens, UniProt P10636, P618L)", "T1 construct": "VN173 (BiFC fragment); VC155 (BiFC fragment); expressed in transfected cells; host or cells: brain of transgenic TauP301L-BiFC mice (transgene-expressed)", "assay": "Tau-BiFC fluorescent imaging of brain tissues (tau oligomer formation)", "format": "in vivo, mouse", "source_text": "• 1) Experimental method for brain tissue sampling • (1) On day 1, after completing 63 times administration schedule, the mice of TauP301L-BiFC mouse model were anesthetized, followed by preparing heart laparotomy. • (2) Saline was introduced into the heart of each mouse in the TauP301L-BiFC mouse model, followed by removing vivo blood using a perfusion pump machine. • (3) The brain of the mouse was extracted and weighed. • (4) The brain to be used for tissue staining experiment was immersed in 4% FPA solution and fixed for 24 hours. • (5) On day 2, after completing fixation, the brain tissues were immersed in 20% sucrose solution to remove water for 24 hours. • (6) On day 3, the brain tissues were immersed in 30% sucrose solution to remove water for 48 hours. • (7) On day 5, the brain tissues free of water were taken and extra moisture was removed. Then, the brain tissues and a frozen tissue embedding agent (OCT compound) were placed in a prepared mold, followed by freezing the brain tissues as fast as possible while protecting the tissues. The frozen brain tissue-containing mold was stored in a defreezer at -80°C. Thereafter, using a cryostat for frozen fragment, the tissues were cut into a unit thickness of 30 µm and stored in 0.05% sodium azide solution.\n• (1) On day 1, a brain tissue sample having a thickness of 30 µm under cryosection was selected for each brain region, immersed in PBS solution, and then washed three times. • (2) A solution of 0.05% Sudan Black B in 70% EtOH was stirred overnight (O/N), and then, particles were filtered through 0.22 µm filter. • (3) The selected brain tissue sample was immersed in distilled water (D.W.), and washed three times for 5 minutes. • (4) The brain tissues were immersed in a prepared 0.05% Sudan Black B solution, followed by staining for 10 minutes. • (5) The brain tissues stained in Sudan black B were immersed in 0.1% PBS-T solution, and washed at an interval of 30 seconds to control a degree of staining. • (6) The tissues were washed in D.W. three times for 5 minutes. • (7) In Hoechst solution at a concentration of 0.2 µg/mL in distilled water, the brain tissues were immersed to conduct nuclei staining for 20 minutes. • (8) The tissues were washed in D.W. three times for 5 minutes. • (9) Tau-BiFC imaging was performed using a slide scanner.\n• (1) In order to obtain fluorescent images of the stained brain tissues, a brain tissue slide was scanned using Zeiss Axio Scan (Zeiss, Oberkochen, Germany). • BiFC fluorescence: λex=460-490 nm, λem=500-550 nm • AT8 fluorescence: λex=620-640 nm, λem=650-700 nm • Hoechst fluorescence: λex=330-375 nm, λem=430-470 nm • (3) For brain tissues per site obtained through imaging, fluorescent value was calculated through Image J software (NIH)."}, "TauP301L-BiFC mice": {"tested_on": "TauP301L-BiFC mice", "assay": "Novel object recognition test (cognitive ability) in 4R TauP301L-BiFC mouse model", "format": "in vivo", "settings": "LMTM 15 mg/kg; mice administered 62 times; FIG. 3", "procedure": "• (1) On day 1, adaptation training to a new open space was conducted. After an adaptation time for two similar objects added to the corresponding open space on day 2, an experiment to evaluate a cognitive ability to the newly replaced object on day 3 was conducted. • (2) 1 hour before the experiment, a time for adaptation of experimental mice in a space wherein the behavior experiment is conducted, should be ensured. • (3) On day 1, after exposing the experimental mouse to an open space in a size of 40 x 40 cm, the mouse was subjected to behavior assessment for 10 minutes. • (4) On day 2, two similar objects were placed in the same open space, followed by enabling the mouse to learn the objects for 10 minutes. • (5) On day 3, one among the two objects learned in the same open space was replaced with a new object. At this time, a cognitive ability to the replaced object was evaluated.\nResults of evaluating the cognitive ability improvement efficacy through a novel object recognition test in the 4R TauP301L-BiFC mouse model were shown in FIG. 3. The experiment was conducted using the TauP301L-BiFC mouse model including 7- to 12-month-old mice administered with the drug for 5 months. […] The obtained results were analyzed through bidirectional ANOVA using Sidak's multiple comparisons test (*p<0.05; ***p<0.0001)."}, "[1]": {"settings": "LMTM 15 mg/kg oral vs. vehicle, decrease (in parentheses)"}, "[2]": {"settings": "LMTM 15 mg/kg oral vs. vehicle, decrease (in parentheses), *p<0.05"}}}
{"smiles": "CN(C)c1ccc2c(c1)Sc1cc(N(C)C)ccc1N2.CS(=O)(=O)O.CS(=O)(=O)O", "note": "[LMTM]", "values": [{"measurement": "TauBiFC fluorescent level, Somatosensory cortex", "setting": "tau oligomer (Tau-BiFC); [1]", "value": "(15 %)"}, {"measurement": "TauBiFC fluorescent level, Substantia nigra", "setting": "tau oligomer (Tau-BiFC); [1]", "value": "(26 %)"}, {"measurement": "TauBiFC fluorescent level, Hippocampus", "setting": "tau oligomer (Tau-BiFC); [2]", "value": "(21 %)*"}, {"measurement": "TauBiFC fluorescent level, Motor cortex", "setting": "tau oligomer (Tau-BiFC); [2]", "value": "(27 %)*"}, {"measurement": "Tau-BiFC fluorescent level as compared to the vehicle group, in words", "setting": "tau oligomer (Tau-BiFC); LMTM 15 mpk", "value": "significantly reduced in the motor cortex, hippocampus and substantia nigra regions"}, {"measurement": "cognitive ability for the new object (novel object recognition test), in words", "setting": "TauP301L-BiFC mice", "value": "significantly improved"}]}
